Laboratory results taken from patent US6995281B2, “Methods for selectively removing counterions from compounds and compounds derived from such methods” (Pfizer, Inc., priority 2003, dated 2006).
Counter-ions that a name gives are not always drawn.

Assays:
Format in all cases: physicochemical
[1] = Pseudo-titration in water with IRA-400(OH) anion exchange resin, samples assayed by HPLC (Example 3); conditions: not a true titration curve
Procedure: 60 g of Amberlite IRA400 (OH) resin (a strongly anionic quaternary ammonium polystyrene resin, about 16–50 mesh, available from Rohm & Haas, Philadelphia, Pa.,) was prewashed with 4.7 percent (by weight) ammonium hydroxide (50 ml of 28 percent ammonium hydroxide, 250 ml deionized water), followed by extensive washing with deionized water. The final conductivity was 6.1 μS.
Samples containing about 0.9 g of S-[2-[(1-Iminoethyl)amino]ethyl]-2-methyl-L-cysteine di-hydrochloride in 142 ml HCl/water solution, were concentrated on a rotary evaporator at 60° C. to an oil. To the oil, diluted to 60 ml with deionized water, was added aliquots of 0.5 g of washed anion exchange resin while stirring. At five minutes after each aliquot of resin was added, the solution pH was measured and a sample removed through a syringe filter. A total of 9 g of anion exchange resin was added. The final pH was 10.8. The resin was removed by filtration and the filtrate was concentrated to an oil by rotary evaporation at 60° C.; no solids formed. The starting material, final filtrate and all intermediate samples were assayed by HPLC and ion chromatography for chloride.
The diamond (solid line) is pH and square (dashed line) is S-[2-[(1-Iminoethyl)amino]ethyl]-2-methyl-L-cysteine (percent initial, by ion chromatography). […] The diamond (solid line) is pH and triangle (broken line) is chloride (by ion chromatography).
These curves are not true titration curves since samples were withdrawn during the progress of the reaction, and since true equilibrium was not attained before the increments of resin were added. Nevertheless, the graphs of FIG. 2 and FIG. 3 illustrate the expected trends. As resin is added to the S-[2-[(1-Iminoethyl)amino]ethyl]-2-methyl-L-cysteine solution the pH rises with change in slope around pH's of 2, 9 and 11. The pH's of slower rise are representative of the pK's of the carboxylic acid, amine and amidine functional groups, respectively. Above a pH of 10, the S-[2-[(1-Iminoethyl)amino]ethyl]-2-methyl-L-cysteine concentration in solution decreases. […]

[2] = Stability of free zwitterion samples at different pH by ion pairing gradient HPLC (Example 6, Table 2); conditions: summary of Table 2
Procedure: Amberlite IRA400 (Cl) resin was rinsed with 3M HCl, water, and then 3M NaOH. Aliquots were 100 ml per 10 g of resin. This procedure was repeated 3 times in order to clean the resin and in order to generate the OH form. A final rinse with water was carried out until the conductivity of the eluting water was 2 μS. The resin was then used to titrate 40 ml of a 50 mg/ml solution of S-[2-[(1-Iminoethyl)amino]ethyl]-2-methyl-L-cysteine dihydrochloride. The concentration is expressed in terms of zwitterion equivalents. Aliquots were taken throughout the titration, filtered and analyzed by HPLC. Subsamples of the aliquots were saved for a second HPLC analysis 1 week after the titration was performed in order to assess the stability of the samples. Additional aliquots were taken for Cl analysis using an ion selective electrode. The pH was also monitored throughout the titration. HPLC analyses were performed using an ion pairing gradient method. […] HPLC Method • Pump A: 20 mM KH2PO4, 10 mM Pentane sulfonic acid, adjusted to pH=3 with phosphoric acid • Pump B: Acetonitrile • Gradient: 0% B at 0 min, 26% B at 15 min, 0% B at 15.1 min • Column: YMC ODS-AQ 120 A, 5 μm, 2.6×150 mm • Wavelength=205 nm

[3] = HPLC analysis after removal of excess HCl with anion exchange resin (Example 4); conditions: pH raised from 1.04 to 2.5 with Amberlite 400 (OH) resin
Procedure: To 3.3 g of sample containing around 305 mg/ml S-[2-[(1-Iminoethyl)amino]ethyl]-2-methyl-L-cysteine dihydrochloride and around 0.2 eq excess HCl, was added 16.7 g of deioinized water. The pH was 1.04. To 14 ml of this solution, prewashed Amberlite 400 (OH) resin was added to obtain a ph of 2.5. The anion exchange treatment lightened the color of the solution from light yellow to water white. The resin was removed by filtration and the starting material and filtrate product were analyzed by chloride titration and HPLC.

| pH of slower rise representative of the pK of the amidine group [1] | pH of slower rise representative of the pK of the amine group [1] | pH of slower rise representative of the pK of the carboxylic acid group [1] | Compound | Degradation when made basic (HPLC) [2] | Qualitative HPLC analysis of starting material and product [3] |
| --- | --- | --- | --- | --- | --- |
| ~11 | ~9 | ~2 | CC(=N)NCCSC[C@](C)(N)C(=O)O [S-[2-[(1-Iminoethyl)amino]ethyl]-2-methyl-L-cysteine] | degradation is not immediate but instead occurs over a period of days |  |
|  |  |  | CC(=N)NCCSC[C@](C)(N)C(=O)O [Example 1, S-[2-[(1-Iminoethyl)amino]ethyl]-2-methyl-L-cysteine, dihydrochloride] |  | no new peaks and no increase in impurities |
